Each structure is given as a SMILES string. Where “and” joins values, the source holds several entries; their conditions need not be identical. Identical values can stand only once.

Holding throughout (type): in vivo, BALB/c mice
Experiment [1] concerns OVA-sensitized asthmatic mice. The experiment is described as follows: Airway hyperresponsiveness (AHR) test, Buxco system, Penh after methacholine aerosol. Here is the method: (§1) Mice in different groups were fed with a Poria extract or pure lanostane compound during the experimental period, and each mouse was subjected to an airway hyperresponsiveness test after one-month feeding, from which an important index reflecting the severe degree of the asthma of the mouse was determined. […] Further, a chemoattractant factor, Eotaxin, was an important observation factor in this example for observing whether the secretion of cytokines changed dramatically.
(§2) • (1) Experimental animal: Inbred BALB/c female mice were maintained by standard laboratory chow ad libitum. Room temperature was maintained at 19-24°C and relative humidity at 50-70%. […] Three minutes after the introduction an average value of AHR per minute was recorded. […] The value of Penh (pause of enhance) was calculated by collecting data derived from transducer (differential pressure transducer; Buxco) and preamplifier (MAX □, Buxco) in the system. The relative increase ratio of Penh was calculated as Penh% = Penhmethacholine/PenhPBS, wherein Penhmethacholine is the average value of Penh after the mice inhale 3 minutes of methacholine aerosol, and PenhPBS is the average value of Penh after the mice inhale 3 minutes of PBS aerosol. • (5) Bronchoalveolar lavage fluid (BALF) and lung histology: As all groups of mice had finished of AHR analysis, they were sacrificed on next day. […]

Experiment [2] deals with immune cells in BALF of OVA-sensitized mice. The experiment is described as follows: Percentage of subpopulations of immune cells in bronchoalveolar lavage fluid (BALF), Liu's stain cell count. Particulars: % of total BALF cells, mean ± SD. As for the experimental part: as §1
• (1) Experimental animal: Inbred BALB/c female mice were maintained by standard laboratory chow ad libitum. Room temperature was maintained at 19-24°C and relative humidity at 50-70%. Animal experiments were performed according to the Guidelines for the Care and Use of Laboratory Animals, Fu-Jen University, Taiwan. […] All mice were exposed to inhalate exposure to 8 ml of 2% OVA aerosols for a period of 20 minutes by placing them in a chamber using an ultrasonic nebulizer (DeVilbiss Pulmo-Aide, 5650D, USA), after receiving the second intraperitoneal injection. • (3) Grouping of the experimental animal: The 10 groups of OVA-sensitized asthmatic mice were separated into a non-treatment asthma group (As); treatment groups with the Poria extract prepared in Example 2 and pure compounds K1, K2 and K3 (1PCE, 1K1, 1K2, 1K3, 2PCE, 2K1, 2K2, and 2K3); and the control drug group (Pred). Each mouse in the treatment group of 1PCE group received daily 0.0372 mg of the ethanol extract PCE prepared in Example 2 (1PCE). 2PCE means mice were fed with two times of the dosage of PCE (0.0744 mg) of the 1PCE group. Each mouse in the treatment groups of 1K1, 1K2 and 1K3 received daily 0.0087 mg of K1, K2 and K3, respectively. 2K1, 2K2, and 2K3 mean mice werer fed with two times of the dosage of K1, K2 and K3 (0.0174 mg) in comparison with the 1K1, 1K2 and 1 K3 groups. Each mouse of the Pred group had been administrated with 0.1 mg of Prednisolone per day for 5 continuous days before the mouse was sacrificed. Above PCE, K1, K2, K3 and Prednisolone compounds were dissolved by 95% ethanol firstly, and finally in Phosphate Buffer Solution (PBS). Each mouse was administered 0.4 mL of total volume each time by gavage. • (4) Airway hyperresponsiveness test: An airway hyperresponsiveness (AHR) value increases proportionally with the severe degree of asthma, and thus a decrease of AHR value is an important index for determining whether asthma is being released. Each mouse in all groups was subjected to the AHR test next day following the 29th day of administering in the treatment groups on which the last inhalate exposure was conducted. The AHR was tested with Buxco system (Biosystem XA; Buxco Electronics Inc. Sharon, CT, USA), wherein the mouse was placed in a chamber, and aerosol of PBS or methacholine of different concentrations (25 mg/ml, and 50 mg/ml) was introduced into the chamber by using an ultrasonic nebulizer. Three minutes after the introduction an average value of AHR per minute was recorded. […] The value of Penh (pause of enhance) was calculated by collecting data derived from transducer (differential pressure transducer; Buxco) and preamplifier (MAX □, Buxco) in the system. The relative increase ratio of Penh was calculated as Penh% = Penhmethacholine/PenhPBS, wherein Penhmethacholine is the average value of Penh after the mice inhale 3 minutes of methacholine aerosol, and PenhPBS is the average value of Penh after the mice inhale 3 minutes of PBS aerosol. • (5) Bronchoalveolar lavage fluid (BALF) and lung histology: As all groups of mice had finished of AHR analysis, they were sacrificed on next day. The lung was immediately lavaged via the trachea cannula (18 GA, angiocath, B.D.) with 1 ml of Hank's balanced salt solution (HBSS, SH30016.01, Hyclone, USA), which contained 2% fetal bovine serum (FBS) and 2 mM 2Na-EDTA for three times. About 3 ml of BALF were collected.

Experiment [3] relates to Eotaxin. The experiment is described as follows: Eotaxin level in BALF by Sandwich-ELISA. Particulars: mean ± SD. Here is the method: as §1, §2
A general note: An ELISA detects its analyte on a solid surface through an enzyme-linked reagent.

[4] abbreviates: groups 1K1, 1K2, 1K3: 0.0087 mg per mouse daily by gavage.
The mark [5] stands for this setting: groups 2K1, 2K2, 2K3: 0.0174 mg per mouse daily by gavage.
The mark [6] stands for this setting: Pred group: 0.1 mg Prednisolone per day for 5 continuous days before sacrifice.

With `C=C(CC[C@@H](C(=O)O)[C@H]1[C@H](O)C[C@@]2(C)C3=CC[C@H]4C(C)(C)C(=O)CC[C@]4(C)C3=CC[C@]12C)C(C)C` [K3], in experiment [1] (groups 1K1, 1K3: 0.0087 mg per mouse daily by gavage, methacholine 50mg/mL), the “values of AHR in comparison with the As group” value was “significantly lower values ofAHR”. In experiment [2] (setting [4]), the Eosinophil is listed as 11.3±7.0%, the Lymphocyte is on record as 49.8±12.8%, the Monocyte amounted to 38.2±8.7% and the Neutrophil was 0.8±0.9%. In experiment [2] (setting [5]), the Eosinophil is 9.7±3.6%, the Lymphocyte is 52.1±8.1%, the Monocyte came to 37.1±5.7% and the Neutrophil is recorded as 1.1±1.1%. Moreover, the Eotaxin result in experiment [3] (setting [4]) was “significantly lower levels of Eotaxin and 21.1±10.4 pg/mL”. For the same compound, in experiment [3] (setting [5]), the Eotaxin was found to be 25.1 ± 12.0 pg/mL.

Turning to `C[C@]12C=CC(=O)C=C1CC[C@@H]1[C@@H]2[C@@H](O)C[C@@]2(C)[C@H]1CC[C@]2(O)C(=O)CO` [Pred, Prednisolone, reference compound], the “values of AHR in comparison with the As group” value in experiment [1] (setting [6]) is on record as “lower values of AHR but not statistically significant”. For the same compound, in experiment [2] (setting [6]), the Monocyte was found to be 13.3±7.8% and the Neutrophil is 0.8±0.8%.

(Values after EP2305268A1, “A PHARMACEUTICAL COMPOSITION FOR TREATING DISEASE CAUSED BY IMMUNE DISTURBANCE AND THE EXTRACT FROM TUCKAHOE” (Sinphar Tian-li Pharmaceutical Co., Ltd. (Hangzhou), priority 2008, dated 2009).)
